Experimental findings from patent EP4385495A1, “NANOSYSTEMS FOR THE ENCAPSULATION OF THERAPEUTIC AGENTS” (National Technical University of Athens, priority 2022, dated 2024) are described below.

The subject of test [1] is IL-6 in RAW264.7 cells. As to the kind of experiment: IL-6 ELISA in supernatants of LPS-stimulated RAW264.7 cells. The format is cell-based, mouse. Conditions: 48h after dilution of nanosystems. The protocol:
The assay was carried using the MOUSE IL-6 ELISA KIT by ORIGENE_(CATALOG No. EA100128), which was based on the evaluation on Microwell Plates coated with antibody to mouse IL-6. The general protocol provided by the supplier for the evaluation of the samples as well as the development of the standard curve of IL-6 was followed. All reagents and working standards were prepared as directed in the instruction form and determined the number of microwell strips required to test the desired number of samples plus appropriate number of wells needed for running blanks and standards. Then 100µL of Standard, control, or sample, were added per well and the plate was cover with the adhesive strip provided and incubated for 1.5 hours at 37°C.
Afterwards, each well was aspirated and washed, and the process was repeated three times for a total of four washes by filling each well with Wash Buffer. […]
After incubation washing was carried out again, followed by the addition of the working solution of Streptavidin-HRP to each well. […] Finally, the plate was gently tapped to ensure thorough mixing and determine the optical density (OD) of each well immediately, using a microplate reader set to 450 nm (optionally 630nm as the reference wavelength;610-650nm is acceptable).
The OD measured for all samples is reflected on the IL-6 standard curve which was developed following the same steps. […] This quantitative assay is based on the sandwich principal as previously described, utilizing the cell culture supernatants for the evaluation of IL-6 protein presence in LPS-treated cells in the presence of the evaluated samples.
For this protocol, RAW264.7 cells were treated with LPS prior to the measurement to stimulate IL-6 production and results are reported as pg/ml of IL-6 corresponding to the standard curve of IL-6 developed ([…]). […] Table 3: Anti-inflammatory potential of the samples expressed as IL-6 presence in LPS-stimulated RAW264.7 cells supernatants.
A general note: ELISA stands for enzyme-linked immunosorbent assay.

Test [2] relates to experimental animal model of osteoarthritis (OA). As to the kind of experiment: Slope walking test in osteoarthritis rat model. The format is in vivo, Wistar rats.
Description: Healthy adult male Wistar rats (150-200 g) were used for the study, with water and food ad libitum, at a constant temperature of 22°C and controlled lighting (12 h light/12 h dark cycle).
As far as the dispersion procedure of the injectables is concerned, all the natural compounds were dissolved in saline solution, whereas the studied nanoparticles were mechanically grinded in a mortar and pestle set with saline solution and Tween 20 (2% w/v) and heated at 36 °C before each treatment. There were six treatments administered every 10 days.
Rats were anesthetized with chloral hydrate. The right knee joints of Group I were injected with normal saline solution and served as a control. Animals from the groups II, III, IV, V, VI, VII were injected with collagenase type II (Clostridium histolyticum). Collagenase (125 collagen digestion unit/mg) was dissolved in saline, and it was injected intra-articularly into the right knee joint twice on days 1 and 4 of the experiment (Al-Saffar, F., H. Ganabadi and S. Fakurazi. Collagenase and sodium iodoacetate-induced experimental osteoarthritis model in Sprague dawley rats. Asian J. Sci. Res. 2: 1-13, 2009). The left knees of all animals were left untreated as a control.
For the evaluation of the effectiveness and time of release of the encapsulated compounds, all animals were subjected to a series of behavioral testing in addition to the measurements of body weight and knees diameter change. The experimental protocol of the present study followed the combination of three different behavioral tests, which are von Frey mechanical allodynia test, grid walking and slope walking test. Behavioral tests are performed in three phases, at the beginning before the start of treatment, in the middle of treatment (approximately 35-40 days) and at the end (after the 70th day).
Walking on an inclined plane was used for the clinical assessment of motor function in rats after induction of OA. The method consists of placing the animal on an inclined plane and then measuring the time (seconds) needed for the animals to go up the walking tray.

As for `C[C@@H]1O[C@@H](O[C@H]2[C@H](Oc3cc(O)c4c(c3)O[C@H](c3ccc(O)cc3)CC4=O)O[C@H](CO)[C@@H](O)[C@@H]2O)[C@H](O)[C@H](O)[C@H]1O` [S1 [NAR], Naringin], the results for the IL-6 in test [1] (25 µM), in test [1] (50 µM) and in test [1] (100 µM) were 720,000 pg/ml, 700,000 pg/ml and 455,000 pg/ml, respectively. Also, the “Slope Walking” value in test [2] (11 days (before treatment)) was 10,3 sec; in test [2] (40 days (half of experimental protocol)), 8,9 sec; in test [2] (70 days (end of experimental protocol)), 8,6 sec.
